Reference: patent publication US20040034879A1, “Mammalian sex selection using genetic modification” (priority 2000, published 2004)

Assays:
[1] = test system: sperm comprising an X chromosome; assay: Sex of offspring sired by male mice carrying TP1-HSV tk (transgene (a)) on the X chromosome; type: in vivo, mouse; conditions: after two weeks of gancyclovir administration, crossed with non-transgenic female mice
Procedure: The mice transformed with transgene (a), as described above, express HSV tk on the X chromosome of maturing sperm. Gancyclovir. from about 5 to about 15 mg/kg body weight, is administered to transgenic mice expressing HSV tk via injection. Upon gancyclovir administration, HSV tk forms toxic metabolites that leads to the ablation of sperm comprising an X chromosome. The TP1 regulatory region is activated post-meiotically, so that Y bearing sperm are not effected. Thus, the transformed male mouse comprises exclusively Y bearing sperm and produces male offspring, upon gancyclovir administration. An exemplary gancyclovir administration regime comprises two weeks of administration prior to mating, thereby destroying X chromosome-bearing sperm prior to mating. Male mice carrying transgene HSV tk (transgene (a)) are crossed non-transgenic female mice. Without gancyclovir administration, half of the offspring are male and half are female. The female offspring carry the transgene on the X chromosome. After two weeks of gancyclovir administration, male mice carrying transgene (a) are crossed with non-transgenic female mice. The resulting offspring are all male.

[2] = test system: Human 293 cells; assay: Luciferase activity after transient co-transfection with pCMV-Luc; type: cell-based; conditions: 48 hours after co-transfection with pBS-CMV-tTA-Barnase-Barstar and pCMV-Luc; tetracycline pretreatment, 2 μg/ml
Procedure: Cell culture and transient transfection: Human 293 cells from embryonal kidney were maintained at 37° C., 5% CO2 in α-MEM supplemented with 10% fetal bovine serum. Transfections by calcium phosphate co-precipitation were performed according to standard protocols. Transfections were carried out in 35 mm dishes, using 1 μg of plasmid together with 0.5 μg of pCMV-Luc or pCMV-GFP. Control trasfections contained 1 μg of empty pTRE plasmid DNA together with 0.5 μg of either pCMV-Luc or pCMV-GFP. Tetracycline was used at a concentration of 2 μg/ml, and added shortly after cells were transfected, unless otherwise indicated. All data were from three replicate plates and the experiments were repeated twice.
Luciferase activity: Twenty-four hours following transfection, media was removed, cells were washed with PBS and luciferase assays were performed as described in Yin et al (1996) with Promega luciferase assay system, using 10 μl lysate and 50 μl luciferase substrate. Activity was measured with a Turner TD-20e luminometer. Protein concentrations in different lysates were determined by Bradford assays (Bio-Rad), and luciferase activity per μg protein determined.

Row | Compound | sex of the resulting offspring [1] | luciferase activity in cells treated with tetracycline versus those not treated [2] [fold]
1 | Nc1nc(O)c2ncn(COC(CO)CO)c2n1 [gancyclovir] | all male | –
2 | CN(C)[C@@H]1C(O)=C(C(N)=O)C(=O)[C@@]2(O)C(O)=C3C(=O)c4c(O)cccc4[C@@](C)(O)[C@H]3C[C@@H]12 [tetracycline] | – | ~6
